Data reported in ChEMBL document CHEMBL3880410, “Novel oxabispidine compounds and their use in the treatment of cardiac arrhythmias” (2009).

The compounds below were run on Cavia porcellus (assay: Anti-cardiac arrhythmia activity in anaesthetised guinea pig assessed as cumulative dose inducing prolongation of monophasic action potential duration by 10% from baseline administered as first dose infusion in 0.2 mL/kg into jugular vein catheter for 30 secs followed by next dosing after 5 mins for 6 to 10 consecutive times by electrophysiology based assay).
Type: functional

Compound	D10
N#Cc1ccc(OCCCN2CC3CN(CCNS(=O)(=O)c4cccc(C#N)c4)CC(C2)O3)cc1	>5.5 mg/kg
N#Cc1ccc(OCCCN2CC3CN(CCNS(=O)(=O)c4ccc5c(c4)CCO5)CC(C2)O3)cc1	>5.5 mg/kg
Cc1noc(C)c1S(=O)(=O)NCCCN1CC2CN(Cc3ccc(C#N)cc3)CC(C1)O2	>5.5 mg/kg
N#Cc1ccc(S(=O)(=O)NCCCN2CC3CN(CCOc4ccc(C#N)cc4F)CC(C2)O3)cc1	>5.5 mg/kg
N#Cc1ccc(OCCN2CC3CN(CCNS(=O)(=O)c4ccc5c(c4)CCO5)CC(C2)O3)c(F)c1	>5.5 mg/kg
O=S(=O)(NCCN1CC2CN(CCc3cccc(F)c3)CC(C1)O2)c1ccc(F)cc1	>5.5 mg/kg
N#Cc1ccc(S(=O)(=O)NCCN2CC3CN(CCc4ccccc4)CC(C2)O3)cc1	>5.5 mg/kg
N#Cc1ccc(OCCN2CC3CN(CCNS(=O)(=O)c4cccc(F)c4)CC(C2)O3)cc1	>5.5 mg/kg
N#Cc1ccc(OCCN2CC3CN(CCCNS(=O)(=O)c4ccccc4)CC(C2)O3)cc1	>5.5 mg/kg
N#Cc1ccc(OCCN2CC3CN(CCNS(=O)(=O)c4ccccc4F)CC(C2)O3)cc1	>5.5 mg/kg
Cc1noc(C)c1S(=O)(=O)NCCN1CC2CN(Cc3ccc(C#N)cc3)CC(C1)O2	>5.5 mg/kg
N#Cc1ccc(OCCN2CC3CN(CCNS(=O)(=O)c4ccc(F)cc4F)CC(C2)O3)cc1	>5.5 mg/kg
Cc1oncc1S(=O)(=O)NCCN1CC2CN(CCCOc3ccc(C#N)cc3)CC(C1)O2	>5.5 mg/kg
CN(CCN1CC2CN(Cc3ccc(C#N)cc3)CC(C1)O2)S(=O)(=O)c1ccc(C#N)cc1	>5.5 mg/kg
CN(CCN1CC2CN(Cc3ccccc3)CC(C1)O2)S(=O)(=O)c1ccc(C#N)cc1	>5.5 mg/kg
CN(CCN1CC2CN(Cc3ccc(C#N)cc3F)CC(C1)O2)S(=O)(=O)c1ccc(C#N)cc1	>5.5 mg/kg
Cc1noc(C)c1CN1CC2CN(CCNS(=O)(=O)c3ccc(C#N)cc3)CC(C1)O2	>5.5 mg/kg
CN(CCN1CC2CN(Cc3ccc(F)cc3)CC(C1)O2)S(=O)(=O)c1ccc(C#N)cc1	>5.5 mg/kg
N#Cc1ccc(OCCCN2CC3CN(CCNS(=O)(=O)c4cccc(F)c4)CC(C2)O3)cc1	>5.5 mg/kg
Cc1noc(C)c1S(=O)(=O)NCCCN1CC2CN(CCOc3ccc(C#N)cc3)CC(C1)O2	>5.5 mg/kg
N#Cc1ccc(S(=O)(=O)NCCN2CC3CN(Cc4ccccc4C#N)CC(C2)O3)cc1	>5.5 mg/kg
N#Cc1ccc(OCCN2CC3CN(CCCNS(=O)(=O)c4ccccc4F)CC(C2)O3)cc1	>5.5 mg/kg

Compound	D10
N#Cc1ccc(S(=O)(=O)NCCN2CC3CN(CCc4ccc(Cl)cc4)CC(C2)O3)cc1	>5.5 mg/kg
Cc1noc(C)c1CN1CC2CN(CCS(=O)(=O)N(Cc3ccc(C#N)cc3)Cc3c(C)noc3C)CC(C1)O2	>5.5 mg/kg
CN(CCN1CC2CN(CCOc3ccc(C#N)cc3)CC(C1)O2)S(=O)(=O)c1ccc2c(c1)CCO2	>5.5 mg/kg
CN(CCN1CC2CN(CCOc3ccc(C#N)cc3F)CC(C1)O2)S(=O)(=O)c1ccc2c(c1)CCO2	>5.5 mg/kg
N#Cc1ccc(S(=O)(=O)NCCN2CC3CN(CCCOc4cccc(F)c4)CC(C2)O3)cc1	>5.5 mg/kg
N#Cc1ccc(S(=O)(=O)NCCN2CC3CN(Cc4c[nH]c5ccccc45)CC(C2)O3)cc1	>5.5 mg/kg
Cc1noc(C)c1CN1CC2CN(CCS(=O)(=O)NCc3ccc(C#N)cc3)CC(C1)O2	>5.5 mg/kg
N#Cc1ccc(S(=O)(=O)NCCN2CC3CN(CCc4ccc(C(F)(F)F)cc4)CC(C2)O3)cc1	>5.5 mg/kg
N#Cc1ccc(S(=O)(=O)NCCN2CC3CN(Cc4c[nH]c5ccc(F)cc45)CC(C2)O3)cc1	>5.5 mg/kg
N#Cc1ccc(S(=O)(=O)NCCN2CC3CN(CCc4cccc(F)c4)CC(C2)O3)cc1	>5.5 mg/kg
Cc1noc(C)c1S(=O)(=O)NCCCN1CC2CN(CCCOc3ccc(C#N)cc3)CC(C1)O2	>5.5 mg/kg
Cc1[nH]c2ccccc2c1CN1CC2CN(CCNS(=O)(=O)c3ccc(C#N)cc3)CC(C1)O2	>5.5 mg/kg
O=S(=O)(NCCN1CC2CN(Cc3ccc(F)cc3)CC(C1)O2)c1ccc(F)cc1	>5.5 mg/kg
N#Cc1ccc(S(=O)(=O)NCCN2CC3CN(CCCOc4ccc(C#N)cc4F)CC(C2)O3)cc1	>5.5 mg/kg
O=S(=O)(NCCN1CC2CN(CCc3ccc(F)cc3)CC(C1)O2)c1ccc(F)cc1	>5.5 mg/kg
N#Cc1ccc(CCN2CC3CN(CCNS(=O)(=O)c4ccc(F)cc4)CC(C2)O3)cc1	>5.5 mg/kg
N#Cc1ccc(OCCCN2CC3CN(CCCNS(=O)(=O)c4ccccc4)CC(C2)O3)cc1	>5.5 mg/kg
N#Cc1ccc(OCCN2CC3CN(CCNS(=O)(=O)c4ccccc4C#N)CC(C2)O3)cc1	>5.5 mg/kg
N#Cc1ccc(OCCN2CC3CN(CCNS(=O)(=O)c4cccc(F)c4)CC(C2)O3)c(F)c1	>5.5 mg/kg
N#Cc1ccc(S(=O)(=O)NCCN2CC3CN(CCCOc4ccc(F)c(F)c4)CC(C2)O3)cc1	>5.5 mg/kg
N#Cc1ccc(OCCN2CC3CN(CCCNS(=O)(=O)c4ccc(F)cc4)CC(C2)O3)c(F)c1	>5.5 mg/kg
Cc1noc(C)c1S(=O)(=O)NCCN1CC2CN(CCOc3ccc(C#N)cc3F)CC(C1)O2	>5.5 mg/kg

Compound	D10
N#Cc1ccc(S(=O)(=O)NCCN2CC3CN(CCOc4c(F)cccc4F)CC(C2)O3)cc1	>5.5 mg/kg
N#Cc1ccc(S(=O)(=O)NCCN2CC3CN(CCOc4ccccc4F)CC(C2)O3)cc1	>5.5 mg/kg
N#Cc1ccc(S(=O)(=O)NCCN2CC3CN(CCCOc4c(F)cc(C#N)cc4F)CC(C2)O3)cc1	>5.5 mg/kg
N#Cc1ccc(OCCN2CC3CN(CCNS(=O)(=O)c4ccc(F)cc4)CC(C2)O3)c(F)c1	>5.5 mg/kg
N#Cc1ccc(CN2CC3CN(CCNS(=O)(=O)Cc4ccccc4)CC(C2)O3)cc1	>5.5 mg/kg
N#Cc1ccc(OCCCN2CC3CN(CCCNS(=O)(=O)Cc4ccccc4)CC(C2)O3)cc1	>5.5 mg/kg
N#Cc1ccc(OCCN2CC3CN(CCCNS(=O)(=O)c4ccccc4)CC(C2)O3)c(F)c1	>5.5 mg/kg
N#Cc1ccc(OCCN2CC3CN(CCNS(=O)(=O)c4cccc(C#N)c4)CC(C2)O3)cc1	>5.5 mg/kg
CN(CCN1CC2CN(CCc3ccccc3F)CC(C1)O2)S(=O)(=O)c1ccc(C#N)cc1	>5.5 mg/kg
N#Cc1ccc(S(=O)(=O)NCCN2CC3CN(Cc4coc5ccccc45)CC(C2)O3)cc1	>5.5 mg/kg
Cc1cc(C)n(CCN2CC3CN(CCNS(=O)(=O)c4ccc(C#N)cc4)CC(C2)O3)n1	>5.5 mg/kg
N#Cc1ccc(CNS(=O)(=O)CCN2CC3CN(Cc4ccccc4C#N)CC(C2)O3)cc1	>5.5 mg/kg
N#Cc1ccc(S(=O)(=O)NCCN2CC3CN(CCc4ccc(F)c(F)c4)CC(C2)O3)cc1	>5.5 mg/kg
N#Cc1ccc(CNS(=O)(=O)CCN2CC3CN(Cc4ccc(C#N)cc4)CC(C2)O3)cc1	>5.5 mg/kg
CC(C)S(=O)(=O)NCCCN1CC2CN(CCCOc3ccc(C#N)cc3)CC(C1)O2	>5.5 mg/kg
Cc1nn(C)c(Cl)c1S(=O)(=O)NCCN1CC2CN(CCCOc3ccc(C#N)cc3)CC(C1)O2	>5.5 mg/kg
N#Cc1ccc(OCCN2CC3CN(CCNS(=O)(=O)Cc4ccccc4)CC(C2)O3)c(F)c1	>5.5 mg/kg
COc1ccc(S(=O)(=O)NCCN2CC3CN(CCCOc4ccc(C#N)cc4)CC(C2)O3)cc1	>5.5 mg/kg
N#Cc1ccc(S(=O)(=O)NCCN2CC3CN(CCc4c(F)cccc4F)CC(C2)O3)cc1	>5.5 mg/kg
N#Cc1ccc(OCCN2CC3CN(CCCNS(=O)(=O)c4ccc(F)cc4)CC(C2)O3)cc1	>5.5 mg/kg
N#Cc1ccc(S(=O)(=O)NCCN2CC3CN(CCc4ccccc4F)CC(C2)O3)cc1	>5.5 mg/kg
N#Cc1ccc(OCCN2CC3CN(CCCNS(=O)(=O)c4ccc(F)cc4F)CC(C2)O3)cc1	>5.5 mg/kg

Compound	D10
N#Cc1ccc(CN2CC3CN(CCNS(=O)(=O)c4ccc(F)cc4)CC(C2)O3)cc1	>5.5 mg/kg
N#Cc1ccc(CN2CC3CN(CCNS(=O)(=O)c4cccc(C#N)c4)CC(C2)O3)cc1	>5.5 mg/kg
CN(CCN1CC2CN(CCc3ccccc3)CC(C1)O2)S(=O)(=O)c1ccc(C#N)cc1	>5.5 mg/kg
N#Cc1ccc(S(=O)(=O)NCCN2CC3CN(Cc4ccc(C#N)cc4F)CC(C2)O3)cc1	>5.5 mg/kg
CN(CCN1CC2CN(CCc3cccc(F)c3)CC(C1)O2)S(=O)(=O)c1ccc(C#N)cc1	>5.5 mg/kg
N#Cc1ccc(CN2CC3CN(CCNS(=O)(=O)c4ccccc4C#N)CC(C2)O3)cc1	>5.5 mg/kg
N#Cc1ccc(S(=O)(=O)NCCN2CC3CN(CCCOc4cc(F)ccc4F)CC(C2)O3)cc1	>5.5 mg/kg
N#Cc1ccc(CNS(=O)(=O)CCN2CC3CN(CCc4ccc(F)cc4)CC(C2)O3)cc1	>5.5 mg/kg
N#Cc1cccc(S(=O)(=O)NCCN2CC3CN(CCOc4ccc(C#N)cc4F)CC(C2)O3)c1	>5.5 mg/kg
N#Cc1ccc(S(=O)(=O)NCCN2CC3CN(CCCOc4ccccc4F)CC(C2)O3)cc1	>5.5 mg/kg
CN(CCCN1CC2CN(CCOc3ccc(C#N)cc3F)CC(C1)O2)S(=O)(=O)c1ccccc1	>5.5 mg/kg
N#Cc1ccc(OCCN2CC3CN(CCNS(=O)(=O)c4ccccc4)CC(C2)O3)c(F)c1	>5.5 mg/kg
CN(CCN1CC2CN(CCOc3c(F)cccc3F)CC(C1)O2)S(=O)(=O)c1ccc(C#N)cc1	>5.5 mg/kg
N#Cc1ccc(OCCCN2CC3CN(CCNS(=O)(=O)c4ccccc4C#N)CC(C2)O3)cc1	>5.5 mg/kg
N#Cc1ccc(OCCN2CC3CN(CCCNS(=O)(=O)Cc4ccccc4)CC(C2)O3)cc1	>5.5 mg/kg
N#Cc1ccc(OCCN2CC3CN(CCCNS(=O)(=O)c4ccc(F)cc4F)CC(C2)O3)c(F)c1	>5.5 mg/kg
N#Cc1ccc(S(=O)(=O)NCCN2CC3CN(CCOc4ccc(C#N)cc4F)CC(C2)O3)cc1	>5.5 mg/kg
N#Cc1ccc(S(=O)(=O)NCCN2CC3CN(Cc4nc5ccccc5o4)CC(C2)O3)cc1	>5.5 mg/kg
COc1ccc(S(=O)(=O)NCCN2CC3CN(CCOc4ccc(C#N)cc4)CC(C2)O3)cc1	>5.5 mg/kg
